# Read-outs that look alike come from different tables or passages of the source.
# Legend:
# MLK1 = MLK1 (Homo sapiens (Human), UniProt P80192); experiment: Dundee profiling
# TESK1 = TESK1 (Homo sapiens (Human), UniProt Q15569); experiment: Dundee profiling
# JNK3 = JNK3 (Homo sapiens (Human), UniProt P53779); experiment: KinomeScan; assay type: binding; conditions: 1 uM
# PDGFRA = PDGFRA (Homo sapiens (Human), UniProt P16234); experiment: Dundee profiling
# NEK6 = NEK6 (Homo sapiens (Human), UniProt Q9HC98); experiment: Dundee profiling
# Chain of NEK6 (Q9HC98 whole entry, species assumed): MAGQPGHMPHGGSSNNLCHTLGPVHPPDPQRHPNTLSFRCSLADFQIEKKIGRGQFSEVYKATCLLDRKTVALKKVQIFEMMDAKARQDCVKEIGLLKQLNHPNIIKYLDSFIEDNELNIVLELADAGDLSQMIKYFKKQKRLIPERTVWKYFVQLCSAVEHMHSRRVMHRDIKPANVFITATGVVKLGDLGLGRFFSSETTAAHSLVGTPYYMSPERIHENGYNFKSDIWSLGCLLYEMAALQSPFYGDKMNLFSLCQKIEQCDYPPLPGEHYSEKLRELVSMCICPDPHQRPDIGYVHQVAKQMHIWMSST
# MST3 = MST3 (Homo sapiens (Human), UniProt Q9Y6E0); experiment: Dundee profiling
# Chain of MST3 (Q9Y6E0 whole entry, species assumed): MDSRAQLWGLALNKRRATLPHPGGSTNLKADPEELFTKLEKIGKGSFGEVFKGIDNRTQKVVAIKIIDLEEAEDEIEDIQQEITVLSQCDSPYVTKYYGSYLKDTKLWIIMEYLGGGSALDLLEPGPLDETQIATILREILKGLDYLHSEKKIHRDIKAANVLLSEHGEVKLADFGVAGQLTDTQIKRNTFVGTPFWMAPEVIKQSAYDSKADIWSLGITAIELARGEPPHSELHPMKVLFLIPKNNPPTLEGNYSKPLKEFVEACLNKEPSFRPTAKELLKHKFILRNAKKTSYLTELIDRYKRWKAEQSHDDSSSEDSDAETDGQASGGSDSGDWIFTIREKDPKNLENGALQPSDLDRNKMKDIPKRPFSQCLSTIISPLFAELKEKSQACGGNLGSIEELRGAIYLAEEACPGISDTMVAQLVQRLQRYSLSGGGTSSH
# ZAP70 = ZAP70 (Homo sapiens (Human), UniProt P43403); experiment: Dundee profiling
# MARK2 = MARK2 (Homo sapiens (Human), UniProt Q7KZI7); experiment: Dundee profiling
# CLK2 = CLK2 (Homo sapiens (Human), UniProt P49760); experiment: Dundee profiling
# Lck = Lck (Homo sapiens (Human), UniProt P06239); experiment: Dundee profiling
# Chain of Lck (P06239 whole entry, species assumed): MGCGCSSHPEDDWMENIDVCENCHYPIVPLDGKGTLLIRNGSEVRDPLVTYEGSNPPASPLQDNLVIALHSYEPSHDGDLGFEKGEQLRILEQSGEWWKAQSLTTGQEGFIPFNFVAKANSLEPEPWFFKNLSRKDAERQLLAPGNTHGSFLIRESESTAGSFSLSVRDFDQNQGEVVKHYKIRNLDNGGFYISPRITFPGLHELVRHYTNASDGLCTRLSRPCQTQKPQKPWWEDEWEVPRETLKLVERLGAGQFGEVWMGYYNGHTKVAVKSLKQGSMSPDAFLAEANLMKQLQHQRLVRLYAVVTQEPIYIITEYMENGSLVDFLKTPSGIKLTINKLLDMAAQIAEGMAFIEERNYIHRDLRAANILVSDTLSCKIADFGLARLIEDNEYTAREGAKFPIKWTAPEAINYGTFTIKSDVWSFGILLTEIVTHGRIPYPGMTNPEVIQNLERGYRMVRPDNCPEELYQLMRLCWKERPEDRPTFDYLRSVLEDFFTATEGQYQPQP
# VEG-FR = experiment: Dundee profiling
# PINK = experiment: Dundee profiling
# STK33 = STK33 (Homo sapiens (Human), UniProt Q9BYT3); experiment: Dundee profiling
# OSR1 = OSR1 (Homo sapiens (Human), UniProt O95747); experiment: Dundee profiling
# PKBb = PKBb (Homo sapiens (Human), UniProt P31751); experiment: Dundee profiling
# Chain of PKBb (P31751 whole entry): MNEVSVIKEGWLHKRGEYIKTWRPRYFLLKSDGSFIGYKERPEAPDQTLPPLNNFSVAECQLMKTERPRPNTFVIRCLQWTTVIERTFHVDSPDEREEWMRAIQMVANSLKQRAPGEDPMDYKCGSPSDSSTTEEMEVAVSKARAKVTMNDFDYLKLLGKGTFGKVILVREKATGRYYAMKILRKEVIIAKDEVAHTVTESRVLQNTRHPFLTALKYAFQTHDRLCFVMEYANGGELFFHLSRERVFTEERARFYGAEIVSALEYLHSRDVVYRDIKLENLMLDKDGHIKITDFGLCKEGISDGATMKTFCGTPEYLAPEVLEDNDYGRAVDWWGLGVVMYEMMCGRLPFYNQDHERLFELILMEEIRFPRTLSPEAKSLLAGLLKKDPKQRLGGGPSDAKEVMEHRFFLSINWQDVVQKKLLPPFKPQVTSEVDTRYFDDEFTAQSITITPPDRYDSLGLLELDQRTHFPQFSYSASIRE
# CDK2 = CDK2 (Homo sapiens (Human), UniProt P24941); experiment: KinomeScan; assay type: binding; conditions: 1 uM
# CK2 = experiment: Dundee profiling
# EPH-B3 = EPH-B3 (Homo sapiens (Human), UniProt P54753); experiment: Dundee profiling
# ERK5 = ERK5 (Homo sapiens (Human), UniProt Q13164); experiment: Dundee profiling
# SIK = SIK (Homo sapiens (Human), UniProt P57059); experiment: KinomeScan; assay type: binding; conditions: 1 uM
# EPH-A2 = EPH-A2 (Homo sapiens (Human), UniProt P29317); experiment: Dundee profiling
# SGK1 = SGK1 (Homo sapiens (Human), UniProt O00141); experiment: Dundee profiling
# Chain of SGK1 (O00141 whole entry, species assumed): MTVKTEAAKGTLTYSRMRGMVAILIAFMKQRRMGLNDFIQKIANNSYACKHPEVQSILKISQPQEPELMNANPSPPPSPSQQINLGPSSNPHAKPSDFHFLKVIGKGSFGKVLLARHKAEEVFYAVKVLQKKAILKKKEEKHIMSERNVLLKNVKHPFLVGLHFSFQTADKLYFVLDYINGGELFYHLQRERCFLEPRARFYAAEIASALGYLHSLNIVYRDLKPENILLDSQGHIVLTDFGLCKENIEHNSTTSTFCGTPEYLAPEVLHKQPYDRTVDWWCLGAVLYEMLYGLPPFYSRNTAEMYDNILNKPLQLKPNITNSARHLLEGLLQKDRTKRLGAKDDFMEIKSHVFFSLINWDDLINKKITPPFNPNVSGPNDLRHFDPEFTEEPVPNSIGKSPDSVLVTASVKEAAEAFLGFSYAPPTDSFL
# GSK3b = GSK3b (Homo sapiens (Human), UniProt P49841); experiment: Dundee profiling
# LOK = LOK (Homo sapiens (Human), UniProt O94804); experiment: KinomeScan; assay type: binding; conditions: 1 uM
# MKK1 = MKK1 (Homo sapiens (Human), UniProt Q02750); experiment: Dundee profiling
# Chain of MKK1 (Q02750 whole entry, species assumed): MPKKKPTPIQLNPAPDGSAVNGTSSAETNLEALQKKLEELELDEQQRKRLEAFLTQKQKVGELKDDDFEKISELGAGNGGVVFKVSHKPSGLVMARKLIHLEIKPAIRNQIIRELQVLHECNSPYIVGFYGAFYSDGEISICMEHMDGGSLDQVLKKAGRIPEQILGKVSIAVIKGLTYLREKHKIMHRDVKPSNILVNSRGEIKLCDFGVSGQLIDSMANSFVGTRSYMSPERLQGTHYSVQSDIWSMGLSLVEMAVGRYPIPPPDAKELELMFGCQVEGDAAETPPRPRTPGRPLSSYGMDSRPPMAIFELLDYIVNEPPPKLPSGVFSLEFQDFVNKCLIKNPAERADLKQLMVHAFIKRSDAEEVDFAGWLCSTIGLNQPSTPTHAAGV
# FLT3 (ITD) = experiment: KinomeScan; assay type: binding; conditions: 1 uM
# MNK2 = MNK2 (Homo sapiens (Human), UniProt Q9HBH9); experiment: Dundee profiling
# Chain of MNK2 (Q9HBH9 whole entry, species assumed): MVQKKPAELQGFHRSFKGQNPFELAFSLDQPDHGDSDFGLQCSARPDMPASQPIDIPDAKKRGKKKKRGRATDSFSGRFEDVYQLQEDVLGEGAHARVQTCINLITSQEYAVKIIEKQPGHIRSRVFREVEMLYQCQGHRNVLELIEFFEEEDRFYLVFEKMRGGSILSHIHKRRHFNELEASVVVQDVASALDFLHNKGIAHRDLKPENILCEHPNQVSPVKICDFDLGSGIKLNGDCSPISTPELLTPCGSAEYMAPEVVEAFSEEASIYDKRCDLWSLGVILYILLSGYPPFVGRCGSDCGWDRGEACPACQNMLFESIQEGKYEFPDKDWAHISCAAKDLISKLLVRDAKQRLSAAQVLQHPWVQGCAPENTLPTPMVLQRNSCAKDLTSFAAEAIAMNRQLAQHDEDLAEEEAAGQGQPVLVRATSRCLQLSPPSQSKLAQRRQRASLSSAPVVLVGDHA
# EPHB2 [1] = target: T1, EPHB2 (Homo sapiens (Human), UniProt P29323); experiment: Dundee profiling
# CK1γ2 = CK1γ2 (Homo sapiens (Human), UniProt P78368); experiment: Dundee profiling
# [2] = target: RSK4 (Kin.Dom.1-N-terminal) (Homo sapiens (Human), UniProt Q9UK32); experiment: KinomeScan; assay type: binding; conditions: 1 uM
# TTBK2 = TTBK2 (Homo sapiens (Human), UniProt Q6IQ55); experiment: Dundee profiling
# Chain of TTBK2 (Q6IQ55 whole entry, species assumed): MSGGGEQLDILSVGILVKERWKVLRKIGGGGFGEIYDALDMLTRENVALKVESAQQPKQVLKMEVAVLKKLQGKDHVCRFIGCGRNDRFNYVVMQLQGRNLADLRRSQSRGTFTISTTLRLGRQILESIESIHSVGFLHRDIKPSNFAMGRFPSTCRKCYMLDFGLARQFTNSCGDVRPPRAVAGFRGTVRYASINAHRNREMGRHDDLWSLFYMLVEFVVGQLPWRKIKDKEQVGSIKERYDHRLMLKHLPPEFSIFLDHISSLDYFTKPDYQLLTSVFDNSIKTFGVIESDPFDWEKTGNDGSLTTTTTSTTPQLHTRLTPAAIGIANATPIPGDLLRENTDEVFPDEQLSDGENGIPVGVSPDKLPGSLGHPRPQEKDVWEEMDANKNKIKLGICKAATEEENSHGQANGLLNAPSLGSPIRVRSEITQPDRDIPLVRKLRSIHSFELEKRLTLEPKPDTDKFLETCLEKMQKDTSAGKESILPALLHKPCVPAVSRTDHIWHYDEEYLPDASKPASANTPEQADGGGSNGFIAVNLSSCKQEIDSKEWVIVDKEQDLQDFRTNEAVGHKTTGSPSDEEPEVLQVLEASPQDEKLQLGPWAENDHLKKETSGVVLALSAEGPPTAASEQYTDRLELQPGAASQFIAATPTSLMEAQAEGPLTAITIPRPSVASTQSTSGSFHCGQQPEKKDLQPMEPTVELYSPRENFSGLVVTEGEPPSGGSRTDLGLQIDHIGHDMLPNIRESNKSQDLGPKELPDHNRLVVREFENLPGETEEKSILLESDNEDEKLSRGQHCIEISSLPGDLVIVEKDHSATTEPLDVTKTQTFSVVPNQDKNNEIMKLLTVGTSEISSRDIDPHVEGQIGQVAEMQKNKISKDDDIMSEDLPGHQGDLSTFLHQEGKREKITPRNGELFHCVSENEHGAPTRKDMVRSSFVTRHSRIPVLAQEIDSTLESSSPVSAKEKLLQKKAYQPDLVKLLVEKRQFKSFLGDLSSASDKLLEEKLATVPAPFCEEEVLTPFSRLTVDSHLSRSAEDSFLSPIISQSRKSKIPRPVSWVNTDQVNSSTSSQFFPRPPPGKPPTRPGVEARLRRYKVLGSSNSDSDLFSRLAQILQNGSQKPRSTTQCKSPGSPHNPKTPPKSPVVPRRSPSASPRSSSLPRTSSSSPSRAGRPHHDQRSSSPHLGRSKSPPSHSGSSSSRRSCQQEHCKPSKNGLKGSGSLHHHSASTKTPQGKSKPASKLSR
# IRAK4 = IRAK4 (Homo sapiens (Human), UniProt Q9NWZ3); experiment: Dundee profiling
# PHK = experiment: Dundee profiling
# HER4 = HER4 (Homo sapiens (Human), UniProt Q15303); experiment: Dundee profiling
# EPHB2 [3] = target: T1, EPHB2; experiment: KinomeScan; assay type: binding; conditions: 1 uM
# [4] = read-out: percent remaining enzymatic activity, I1, 1 μM
# [5] = read-out: percent remaining enzymatic activity, I10
# [6] = read-out: percent remaining enzymatic activity
# Chain of TESK1 (Q15569 whole entry, looked up, species assumed): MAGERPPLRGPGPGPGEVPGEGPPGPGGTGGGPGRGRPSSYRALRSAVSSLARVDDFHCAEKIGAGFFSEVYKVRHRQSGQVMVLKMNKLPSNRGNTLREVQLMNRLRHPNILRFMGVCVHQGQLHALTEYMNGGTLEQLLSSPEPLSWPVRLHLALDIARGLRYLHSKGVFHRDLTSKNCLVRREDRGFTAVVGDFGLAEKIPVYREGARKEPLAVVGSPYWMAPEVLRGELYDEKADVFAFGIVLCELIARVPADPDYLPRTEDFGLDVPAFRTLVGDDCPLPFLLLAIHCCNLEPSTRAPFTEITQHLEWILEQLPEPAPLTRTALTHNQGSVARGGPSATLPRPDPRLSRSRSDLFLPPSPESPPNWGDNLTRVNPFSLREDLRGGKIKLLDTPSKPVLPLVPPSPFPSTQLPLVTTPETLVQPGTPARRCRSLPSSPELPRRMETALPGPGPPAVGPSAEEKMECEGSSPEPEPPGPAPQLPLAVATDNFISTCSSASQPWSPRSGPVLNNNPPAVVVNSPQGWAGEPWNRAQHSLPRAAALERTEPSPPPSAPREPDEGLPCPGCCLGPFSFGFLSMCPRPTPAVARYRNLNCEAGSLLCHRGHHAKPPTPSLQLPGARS
compound,measurement,setting,value
"CNc1nc(Nc2ccc(C(=O)N3CCOCC3)cc2OC)nc2[nH]cc(Cl)c12 [Compound 18, (4-((5-chloro-4-(methylamino)-7H-pyrrolo[2,3-d]pyrimidin-2-yl)amino)-3-methoxyphenyl)(morpholino)methanone]",remaining activity at 1 µM,MLK1; [4],81%
same,remaining activity at 1 µM,MLK1; [5],38%
same,remaining activity at 1 µM,TESK1; [4],97%
same,remaining activity at 1 µM,TESK1; [5],95%
same,KinomeScan value,JNK3,67
same,remaining activity at 1 µM,PDGFRA; [4],109%
same,remaining activity at 1 µM,PDGFRA; [5],89%
same,remaining activity at 1 µM,NEK6; [4],101%
same,remaining activity at 1 µM,NEK6; [5],83%
same,percent remaining enzymatic activity,MST3; I10,95%
same,remaining activity at 1 µM,MST3; [6],102%
same,remaining activity at 1 µM,ZAP70; [4],101%
same,remaining activity at 1 µM,ZAP70; [5],85%
same,remaining activity at 1 µM,MARK2; [4],101%
same,remaining activity at 1 µM,MARK2; [5],82%
same,remaining activity at 1 µM,CLK2; [4],13%
same,remaining activity at 1 µM,CLK2; [5],2%
same,remaining activity at 1 µM,Lck; [4],97%
same,remaining activity at 1 µM,Lck; [5],111%
same,percent remaining enzymatic activity,"VEG-FR; I1, 1 μM",104%
same,percent remaining enzymatic activity,VEG-FR; I10,100%
same,percent remaining enzymatic activity,"PINK; I1, 1 μM",105%
same,percent remaining enzymatic activity,PINK; I10,89%
same,remaining activity at 1 µM,STK33; [4],22%
same,remaining activity at 1 µM,STK33; [5],15%
same,remaining activity at 1 µM,OSR1; [4],61%
same,remaining activity at 1 µM,OSR1; [5],12%
same,remaining activity at 1 µM,PKBb; [4],118%
same,remaining activity at 1 µM,PKBb; [5],103%
same,KinomeScan value,CDK2,95
same,percent remaining enzymatic activity,"CK2; I1, 1 μM",94%
same,percent remaining enzymatic activity,CK2; I10,70%
same,percent remaining enzymatic activity,"EPH-B3; I1, 1 μM",92%
same,remaining activity at 1 µM,EPH-B3; [6],92%
same,remaining activity at 1 µM,ERK5; [4],76%
same,remaining activity at 1 µM,ERK5; [5],52%
same,KinomeScan value,SIK,94
same,remaining activity at 1 µM,EPH-A2; [4],104%
same,remaining activity at 1 µM,EPH-A2; [5],101%
same,remaining activity at 1 µM,SGK1; [4],86%
same,remaining activity at 1 µM,SGK1; [5],76%
same,remaining activity at 1 µM,GSK3b; [4],82%
same,remaining activity at 1 µM,GSK3b; [5],97%
same,KinomeScan value,LOK,100
same,remaining activity at 1 µM,MKK1; [4],91%
same,remaining activity at 1 µM,MKK1; [5],56%
same,KinomeScan value,FLT3 (ITD),94
same,remaining activity at 1 µM,MNK2; [4],75%
same,remaining activity at 1 µM,MNK2; [5],25%
same,percent remaining enzymatic activity,EPHB2 [1]; I10,58%
same,remaining activity at 1 µM,EPHB2 [1]; [6],60%
same,percent remaining enzymatic activity,CK1γ2; I10,45%
same,remaining activity at 1 µM,CK1γ2; [6],100%
same,KinomeScan value,[2],93
same,percent remaining enzymatic activity,TTBK2; I10,90%
same,remaining activity at 1 µM,TTBK2; [6],105%
same,percent remaining enzymatic activity,IRAK4; I10,82%
same,remaining activity at 1 µM,IRAK4; [6],95%
same,percent remaining enzymatic activity,"PHK; I1, 1 μM",13%
same,percent remaining enzymatic activity,PHK; I10,1%
same,remaining activity at 1 µM,HER4; [4],94%
same,remaining activity at 1 µM,HER4; [5],71%
same,KinomeScan value,EPHB2 [3],98

# Source: US10913744B2, “LRRK2 inhibitors and methods of making and using the same” (Dana-Farber Cancer Institute, Inc., priority 2015, dated 2021)
